# Source: patent publication US9605047B2, “Compositions and methods for treating hypertension” (The Brigham and Women's Hospital, Inc., priority 2012, dated 2017)
# Key:
# eNOS = eNOS activity ([14C] arginine, NOS activity kit) in HPAECs; type: cell-based, human; conditions: ET-1 (10 nM) stimulated HPAECs, without or with aldosterone; n=3
# Experimental: eNOS activity. eNOS activity was measured using the NOS activity kit (Cayman) according to the manufacturer's instructions with some modifications. Cells were washed with PBS containing 1 mM EDTA, transferred to a microcentrifuge tube, and centrifuged at 14,000×g at 4° C. for 2 min. The supernatant was decanted and homogenization buffer (250 mM Tris-HCl, pH 7.4, 6 μM BH4, 2 μM flavin adenine dinucleotide, and 2 μM flavin adenine mononucleotide) was added to the cell pellets. […] The samples were then centrifuged at 14,000×g for 30 seconds and radioactivity of the eluant was quantified in a liquid scintillation counter (Beckman-Coulter).
# [1] = system: ETB-dependent NO. generation in HPAECs; test: NO. metabolites (NO2−, NO3−) in ET-1-stimulated HPAECs; type: cell-based, human; conditions: n=3
# Experimental: Cell culture and treatments. Human pulmonary artery endothelial cells (HPAECs) (Lonza) (male donors) were grown to confluence using phenol-free EGM-2 medium supplemented with 5% fetal bovine serum at 37° C., 5% CO2. Cells were passaged twice-weekly using 0.5% trypsin/EDTA, and experiments were performed on cells from passages 4-10. Aldosterone (Steraloids) and ET-1 (1-100 nM) (Sigma-Aldrich) were dissolved in dimethylsufloxide (10 nmol/L) and deoxygenated water, respectively, which served as vehicle controls. Cells were treated with aldosterone (10^−−10^−7 mol/L) for 24 h and in selected experiments co-incubated with the mineralocorticoid receptor inhibitor spironolactone (10 μM/l) (Sigma-Aldrich).
# NO. metabolites. Nitrite (NO2^−) and nitrate (NO3^−) were measured in cell culture medium containing 2% fetal bovine serum and L-arginine (1 mmol/l) (Sigma-Aldrich) by 1(H)-naphthotriazole fluorescence (Cayman) as previously reported.^1 To measure NO2^− levels in whole lung tissue, lung specimens were harvested from rats and snap frozen in liquid nitrogen.
# [2] = system: NOX4 and NOX4 subunit p22^phox; test: NOX4 and p22phox protein levels in HPAECs by Western analysis; type: cell-based, human; conditions: n=3
# Experimental: Cell culture and treatments. Human pulmonary artery endothelial cells (HPAECs) (Lonza) (male donors) were grown to confluence using phenol-free EGM-2 medium supplemented with 5% fetal bovine serum at 37° C., 5% CO2. Cells were passaged twice-weekly using 0.5% trypsin/EDTA, and experiments were performed on cells from passages 4-10. Aldosterone (Steraloids) and ET-1 (1-100 nM) (Sigma-Aldrich) were dissolved in dimethylsufloxide ([…]) and deoxygenated water, respectively, which served as vehicle controls. Cells were treated with aldosterone (10^−−10^−7 mol/L) for 24 h and in selected experiments co-incubated with the mineralocorticoid receptor inhibitor spironolactone (10 μM/l) (Sigma-Aldrich).
# (§1) Immunoblotting. Proteins were size fractionated electrophoretically using SDS-PAGE and transferred to polyvinylidene fluoride membranes. The membranes were incubated with anti-ETA (Santa Cruz Biotechnology), anti-ETB (Santa Cruz Biotechnology), anti-NOX4 (Santa Cruz Biotechnology), anti-p22P^phox (Santa Cruz), anti-eNOS (Cell Signaling), anti-PGC-1α (Santa Cruz Biotechnology), and anti-SF (Santa Cruz Biotechnology) antibodies overnight at 4° C. and visualized using the ECL detection system (Amersham Biosciences). In experiments to assess ETA expression, purified ETA protein (Novus Biological) was loaded to serve as an internal control.
# HPAECs [3] = test: Amplex Red assay of hydrogen peroxide levels in HPAECs; type: cell-based, human; conditions: aldosterone 10^−7 mol/L, 24 h, HPAECs; vs V 65.4±1.6; n=3
# Experimental: Human pulmonary artery endothelial cells (HPAECs) (Lonza) (male donors) were grown to confluence using phenol-free EGM-2 medium supplemented with 5% fetal bovine serum at 37° C., 5% CO2. Cells were passaged twice-weekly using 0.5% trypsin/EDTA, and experiments were performed on cells from passages 4-10. Aldosterone (Steraloids) and ET-1 (1-100 nM) (Sigma-Aldrich) were dissolved in dimethylsufloxide (10 nmol/L) and deoxygenated water, respectively, which served as vehicle controls. Cells were treated with aldosterone (10^−−10^−7 mol/L) for 24 h and in selected experiments co-incubated with the mineralocorticoid receptor inhibitor spironolactone (10 μM/l) (Sigma-Aldrich).
# [4] = target: T1, ETB cysteinyl thiols (region containing Cys405) (Homo sapiens, UniProt P24530); test: Western analysis to detect ETB disulfide bond formation in HPAECs; type: cell-based; conditions: aldosterone 10^−7 mol/L 24 h or H2O2 200 μmol/L 20 min
# T1 construct: endogenous in cells; host or cells: HPAECs (Lonza)
# T1 sequence (P24530 27-442): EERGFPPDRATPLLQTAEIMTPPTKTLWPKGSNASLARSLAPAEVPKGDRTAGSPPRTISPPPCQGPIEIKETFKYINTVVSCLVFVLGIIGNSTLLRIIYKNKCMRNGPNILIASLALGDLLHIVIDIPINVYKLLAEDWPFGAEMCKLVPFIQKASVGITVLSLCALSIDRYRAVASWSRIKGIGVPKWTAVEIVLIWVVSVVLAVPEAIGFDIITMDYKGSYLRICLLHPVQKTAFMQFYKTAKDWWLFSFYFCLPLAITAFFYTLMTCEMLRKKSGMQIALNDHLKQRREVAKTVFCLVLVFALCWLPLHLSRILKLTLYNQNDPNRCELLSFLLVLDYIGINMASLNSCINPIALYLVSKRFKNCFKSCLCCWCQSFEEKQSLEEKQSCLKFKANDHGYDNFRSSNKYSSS
# Experimental: Western analysis to detect ETB disfulfide bond formation. Western analysis to detect ETB disulfide bond formation was performed as described previously.^7 Briefly, protein extracts from cells were lysed in alkylating buffer containing 0.1 M Tris-HCL, pH 6.8, 1% SDS, 100 mM iodoacetamide, and 100 mM N-ethylmaleimide, and sonicated on ice for 5 min followed by a 30-min incubation at 25° C. Alkylated proteins were then precipitated with acetone. Proteins were resuspended in 50 μl of 0.1 M Tris-HCl, pH 7.4, 1% SDS; and disulfides were reduced with 5 mM tris(2-carboxyethyl)phosphine hydrochloride (TCEP). Following a 20-min incubation at 25° C., TCEP was removed with a Micro Bio-Spin™ column 6 (Bio-Rad), and 1% SDS was added to the eluant. The cysteines previously participating in a disulfide bond, now reduced, were labeled with 1 mM polyethylene glycol-conjugated maleimide (molecular mass 10 kDa) (Fluka). After a 1-h incubation at 25° C., proteins were precipitated with acetone, resuspended in 50 μl of non-reducing SDS electrophoresis buffer, and boiled for 10 min. Protein samples were then size-fractionated electrophoretically using SDS-PAGE, and transferred to a polyvinylidene fluoride membrane. […]
# [5] = system: ETB region containing Cys405; test: ETB sulfenic acid (R-SOH) by immunoprecipitation and immunoblot in HPAECs; type: cell-based, human; conditions: aldosterone 10^−7 mol/L, 24 h, vs V, n=3
# Experimental: Co-immunoprecipitation of proteins. Cell monolayers were washed twice with ice-cold PBS and incubated on ice with RIPA buffer supplemented with various protease inhibitors (Millpore). Cells were scraped with a rubber policeman and samples were rotated at 4° C. for 15 min. Lysates were centrifuged at 14,000×g at 4° C. for 15 min and the then pre-cleared with a 50% slurry of Protein G agarose beads (Santa Cruz Biotechnology) mixed with PBS. Following removal of the beads by centrifugation, cell lysates were incubated with an anti-ETB or anti-PGC-1α antibody (Santa Cruz Biotechnology) overnight at 4° C. The immunocomplex was captured by incubating lysates with 50% Protein G agarose bead slurry at 4° C. for 1 h. Beads were collected by pulse centrifugation, resuspended in non-reducing sample buffer, and then boiled for 10 min to dissociate the immunocomplex from the beads. Western analysis was performed with an anti-SF (Santa Cruz) or anti-sulfenic acid (R—SOH) antibody (Millpore) as described above.
# HPAECs [6] = test: 3-Nitrotyrosine immunohistochemistry in HPAECs; type: cell-based, human; conditions: V 24.1±3.3, n=5
# Experimental: 3-Nitrotyrosine immunohistochemistry. Cells grown to confluence on glass chamber slides were fixed following treatments and anti-3-nitrotyrosine immunohistochemistry (Santa Cruz Biotechnology) was performed using the 3,3′-diaminobenzidine substrate method (Vector laboratories) as described previously.^1
# ETA, ETB, eNOS = test: ETA, ETB and eNOS protein levels in HPAECs by Western analysis; type: cell-based, human
# Experimental: as §1, with “anti-[…]^phox” for “anti-p22P^phox”
# [7] = aldosterone 10^−7 mol/L, 24 h, HPAECs
smiles,measurement,setting,value
C[C@]12CCC(=O)C=C1CC[C@@H]1[C@@H]2[C@@H](O)C[C@]2(C=O)[C@@H](C(=O)CO)CC[C@@H]12 [aldosterone],eNOS activity,eNOS,7.6±2.4 [^14C] L-citrulline c.p.m./μg protein
same,total NO. metabolite (NOx: NO2^−+NO3^−) formation,"[1]; ET-1 (10 nM) stimulated HPAECs, without or with aldosterone",103.4±12.2 μM/μg protein
same,decrease in ETB-mediated NO2^− levels,"[1]; aldosterone 10^−7 mol/L, 24 h, then ET-1 10 nM, HPAECs",60.3%
same,decrease in NO2^−/NO3^− ratio,[1]; aldosterone in ET-1-stimulated HPAECs,62%
same,protein levels of NOX4,[2]; aldosterone 10^−7 mol/L,157.0±4.4 % control
same,protein levels of p22^phox,[2]; aldosterone 10^−7 mol/L,829.5±295.6 % control
same,protein levels of NOX4,[2]; aldosterone 10^−8 mol/L,146.3±12.4 % control
same,protein levels of p22^phox,[2]; aldosterone 10^−8 mol/L,961±226.2 % control
same,protein levels of NOX4,[2]; aldosterone 10^−9 mol/L,134.6±16.5 % control
same,protein levels of p22^phox,[2]; aldosterone 10^−9 mol/L,1009.4±167.0 % control
same,H2O2 accumulation,HPAECs [3],100.6±3.5 μM/mg protein
same,ETB disulfide bond formation (bands at 70 kDa and 90 kDa),[4],de novo formation of one or two disulfide bonds
same,increase in ETB-SOH protein expression levels,[5],639%
same,levels of 3-nitrotyrosine,HPAECs [6],46.8±6.6 arb. units
same,expression of ETA,"ETA, ETB, eNOS; [7]","Without influencing protein expression of ETB, or inducing"
same,protein expression of ETB,"ETA, ETB, eNOS; [7]",Without influencing
same,eNOS protein levels,"ETA, ETB, eNOS; aldosterone-treated HPAECs",Without influencing
